From patent US5900434A, “Method for inhibiting the production of interleukin-1 or tumor necrosis factor-α by administering acanthoic acid” (Korea Institute of Science and Technology, priority 1994, dated 1999)

What was measured:
[1] = test system: collagen synthesis in rat pulmonary fibroblast; assay: Inhibition of collagen synthesis in rat pulmonary fibroblasts (indirect ELISA); format: cell-based; details: culture of rat pulmonary fibroblast pretreated with acanthoic acid, silica-stimulated; FIG. 7
Method: Fibroblasts were separated from rats by using a modification of the method of Phan, S. H., et al. described in J. Clin. Invest., 76, 241(1985), as follows. A rat was anesthetized with ether and its lungs were isolated on the aseptic worktable. The lungs were cut into small pieces in the size ranging from 2 to 4 mm and suspended in phosphate buffered saline(PBS) containing collagenase and 0.5% trypsin to digest the tissues at 37° C. for 2 hours. The suspension was filtered through sterilized gauze to remove undigested tissues, etc. The separated cells were washed with PBS twice or three times and suspended into RPMI 1640 medium(Gibco, Grand Island, N.Y., U.S.A.) containing 10% fetal bovine serum(FBS, Hyclone, Logan, Utah, U.S.A.). […] For the purpose of confirming the ability of acanthoic acid to suppress the action of IL-1 and TNF-α, its inhibitory effect on the collagen synthesis in rat pulmonary fibroblast and pulmonary tissues was determined. The amount of produced collagen in the culture of rat pulmonary fibroblast was measured by an indirect ELISA method, and that of pulmonary tissue was determined by measuring the concentration of hydroxyproline and calculating the amount of collagen therefrom by using the standard curve of internal control group. […]

[2] = test system: serum glutamic-oxaloacetic transaminase (sGOT); assay: CCl4-induced hepatocirrhosis in rat, serum GOT; format: in vivo, Sprague-Dawley rat; details: vs CCl4, DMSO and PBS control; 0.2 ml orally twice a week, 13 weeks; FIG. 10
Excerpt: Hepatocirrhosis(hepatic sclerosis) is characterized by the fibrosis of whole liver, complete disruption of liver parenchyma by fibrous septa, and formation of regenerative nodules. It is derived mostly from a chronic hepatitis or chronic alcoholism, however, the precise causes thereof are unknown. In a hepatocirrhosis patient, the amount of cytokines, e.g., TNF-α, which is involved in inflammation and fibrosis, is in an increased state; and, therefore, the inhibition of hepatocirrhosis by acanthoic acid may be determined by the inhibitory activity to TNF-α. To induce the experimental hepatocirrhosis in accordance with the method of Nakataukasa, H., et al. as described in J. Clin. Invest., 85, 1833-1843(1990), 1.0 ml/100 g of body weight of CCl4 solution(50% CCl4 +50% corn oil) was injected intraperitoneally to 4 week old male Sprague-Dawley rats twice a week, and 0.2 ml each of methanol extract of A. koreanum Nakai and acanthoic acid was administered orally at the time of the injection of CCl4 twice a week. After 13 weeks from the start of the test, each of the rats was anesthetized with ether and the blood samples were obtained from the heart to determine serum glutamic-oxaloacetic transaminase(sGOT) value and serum glutamic-pyruvic transaminase(sGPT) value(FIG. 10).

[3] = test system: prostaglandin E2 (PGE2) synthesis; details: cited from earlier work

C=C[C@@]1(C)CC=C2C(CCC3[C@](C)(C(=O)O)CCC[C@@]23C)C1 (single isomer, unassigned; (-)) [acanthoic acid, (-)-pimara-9(11),15-diene-19-oic acid]
amount of synthesized collagen [1]: decreases significantly | decrease of sGOT value [2]: 30% | inhibition of prostaglandin E2 (PGE2) synthesis [3]: inhibit
